Data as given in article PMC7331731, “Activity of vitamin D receptor agonists against dengue virus” (Scientific Reports, 2020).

What was measured:
[1] = test system: DENV infected monocytic U937 cells or hepatic Huh-7 cells; set-up: method as in PMID 22387385; settings: U937 or Huh-7 cells; cited from earlier work
DENV 2 [2] = assay: DENV 2 virus titer in supernatant by standard plaque assay (infected HEK293T/17 cells); type: cell-based, dengue virus; settings: for virus titer, treatment at 6 and 12 h post-infection: read at 24 h.p.i.; for EC50: HEK293T/17 cells, DENV 2 MOI 5, post-infection treatment, virus titer at 24 h by plaque assay
Procedure: Human embryonic kidney HEK293T/17 (ATCC No. CRL-11268) and human hepatocellular HepG2 (ATCC No. HB-8065) cells were cultured in complete medium, composed of Dulbecco’s modified Eagle medium (DMEM; Gibco BRL) supplemented with 10% heat-inactivated fetal bovine serum (FBS) at 37 °C with 5% CO2. Dengue virus serotype 2 (DENV 2) strain 16681, DENV 1 (strain 16007), DENV 3 (strain 16562), DENV 4 (strain 1036), ZIKV (strain SV0010/15) and JEV (strain BJ1) were all propagated in the Aedes albopictus cell line C6/36 (ATCC No. CRL-1660). Viral progenies in the supernatant were collected and centrifuged at 1,000g to remove cell debris. The virus stocks were kept at − 80 °C until used. Virus titers were determined by standard plaque assay on LLC-MK2 cells (ATCC No. CCL-7).
(§1) HEK293T/17 cells were cultured on 6-well plates until 70% confluence was reached under standard conditions. The cells were mock-infected or infected with DENV 2 at a multiplicity (MOI) of 5 for 2 h. After infection, the medium was removed and the infected cells were incubated with appropriate concentrations of the VDR agonists until 24 h.p.i., in parallel with DMSO treated control cells. Experiments were performed independently triplicate.
(§2) For time course experiments, under conditions of pre-infection treatment, HEK293T/17 cells were pre-treated with an appropriate concentration of VDR agonists for 1, 3 or 6 h before infection, followed by incubation in complete medium. For treatment post-infection, infected cells were treated with VDR agonists at 0, 1, 3, 6 and 12 h.p.i. The infected cells and supernatant for both pre- and post-treated samples were collected at 24 h.p.i. Experiments were performed independently triplicate.

VDR = assay: VDR-regulated gene expression by qRT-PCR, VDR; type: cell-based, human; settings: 20 µM, 24 h, HEK293T/17, vs actin and 0.02% DMSO
Procedure: (§3) HEK293T/17 cells were incubated with either 10 µM of VDR agonists or 20 μM of commercial VDR agonist EB1089 (Tocris Cookson Ltd., Bristol, UK) for 24 h. Subsequently, the treated cell lysate was collected to determine the mRNA levels of the VDR gene as well as genes regulated by VDR. Total RNA was extracted and cDNA was synthesized as described above. Amplification was performed using specific primers, namely VDR-F: 5′-[…]-3′, VDR-R: 5′-AGTGGCGTCGGTTGTCCTT-3′, CYP27B1-F: 5′-[…]-3′, CYP27B1-R 5′-[…]-3′, CYP24A1-F: 5′-[…]-3′ and CYP24A1-R 5′-[…]-3′. The mRNA expression was normalized against β-actin and DMSO control-treated cells, respectively according to the following equation: ΔΔCt = ΔCt (gene)—ΔCt (DMSO). Experiments were performed independently in triplicate with triplicate real-time PCR.

CYP24A1 = assay: VDR-regulated gene expression by qRT-PCR, CYP24A1; type: cell-based, human; settings: 20 µM, 24 h, HEK293T/17, vs actin and 0.02% DMSO
Procedure: as §3

CYP27B1 = assay: VDR-regulated gene expression by qRT-PCR, CYP27B1; type: cell-based, human; settings: 20 µM, 24 h, HEK293T/17, vs actin and 0.02% DMSO
Procedure: as §3

DENV 2 [3] = assay: Level of DENV 2 infection by flow cytometry (HEK293T/17 cells); type: cell-based, dengue virus; settings: for level of infection: HEK293T/17, vs 0.01% DMSO control; for level of infection, treatment at 6 and 12 h post-infection: read at 24 h.p.i.
Procedure: as §1, §2
HEK293T/17 cells were mock-infected or infected with DENV 2 at MOI 5 for 2 h, followed by treatment with the appropriate concentration of VDR agonists. At 24 hpi, the treated cells were harvested and Fc receptors were blocked with 10% goat serum (Gibco BRL, Gaithersburg, MD) for 30 min at 4 °C. The cells were washed with 1% BSA in 1X PBS/IFA (150 mM NaCl, 50 mM NaH2PO4, 50 m M Na2HPO4, pH to 7.4) and centrifuged at 6,000 g for 5 min. Then, the cells were fixed with 4% paraformaldehyde in 1X PBS/IFA at room temperature in the dark for 20 min, followed by the washing. Cell membrane permeabilization was performed using 0.2%Triton-X in 1X PBS/IFA for 10 min in the dark followed by overnight incubation with a 1:150 dilution of a pan-specific mouse monoclonal anti-dengue E protein antibody (HB114[44]). Cells were subsequently incubated for 1 h in the dark with a 1:40 dilution of a fluorescein isothiocyanate (FITC)-conjugated goat anti-mouse IgG antibody (KPL, Guilford, UK) with washing between each step 1% BSA/PBS-IFA. Finally, the cells were analyzed by flow cytometry on a BD FACSCalibur cytometer (Becton Dickinson, BD Biosciences, San Jose, CA) using the CELLQuest software. All experiments were performed independently in triplicate.

DENV 2 [4] = assay: Level of DENV 2 infection in HepG2 cells by flow cytometry; type: cell-based, dengue virus; settings: 10 μM, 24 h, DENV 2 MOI 5
Procedure: Given that HEK293T/17 cells are not representative of a DENV target tissue, the antiviral activity of the VDR agonists was evaluated in cells representative of a primary target cell. For this reason, HepG2 cells were infected with DENV 2, followed by treatment with 10 μM of the five effective VDR agonists (ZD-1, ZD-2, ZD-3, ZD-5, and ZD-6) for 24 h, after which the level of infection was determined by flow cytometry.
Figure 5 Antiviral activity of VDR agonists against DENV infection on HepG2 cells. HepG2 cells were mock-infected or infected with DENV 2 at MOI 5 for 2 h, followed by the treatment with 10 μM of ZD-1, ZD-2, ZD-3, ZD-5 and ZD-6 for 24 h.p.i. The treated cells were collected and level of infection determined by flow cytometry. p value; *< 0.05, **< 0.01, ***< 0.001 for significance. The experiment was performed independently in triplicate.
HEK293T/17 cells were mock-infected or infected with DENV 2 at MOI 5 for 2 h, followed by treatment with the appropriate concentration of VDR agonists. At 24 hpi, the treated cells were harvested and Fc receptors were blocked with 10% goat serum (Gibco BRL, Gaithersburg, MD) for 30 min at 4 °C. […] Finally, the cells were analyzed by flow cytometry on a BD FACSCalibur cytometer (Becton Dickinson, BD Biosciences, San Jose, CA) using the CELLQuest software. […]

DENV 3 (strain 16562) = assay: Virus titer by plaque assay, DENV 3; type: cell-based, dengue virus; settings: 10 μM, 24 h, HEK293T/17, MOI 10
Procedure: (§4) For viruses other than DENV 2, HEK293T/17 cells were infected with DENV 1 (strain 16007), DENV 3 (strain 16562), DENV 4 (strain 1036) and ZIKV (strain SV0010/15) at MOI 10 and with JEV (strain BJ1) at MOI 1. At 2 h.p.i., the virus was removed and the cells were incubated with 10 μM of VDR agonist (ZD-6) in complete medium for 24 h, after which the supernatant was collected, and the virus titer was determined by standard plaque assay. Experiments were performed independently triplicate.

DENV 1 (strain 16007) = assay: Virus titer by plaque assay, DENV 1; type: cell-based, dengue virus; settings: 10 μM, 24 h, HEK293T/17, MOI 10
Procedure: as §4

ZIKV (strain SV0010/15) = assay: Virus titer by plaque assay, ZIKV; type: cell-based; settings: 10 μM, 24 h, HEK293T/17, MOI 10
Procedure: as §4

DENV 4 (strain 1036) = assay: Virus titer by plaque assay, DENV 4; type: cell-based, dengue virus; settings: 10 μM, 24 h, HEK293T/17, MOI 10
Procedure: as §4

[5] = test system: DENV 1, 3, 4, JEV and ZIKV; assay: Activity against other flaviviruses, plaque assay (all viruses together); type: cell-based; settings: 10 μM, 24 h, HEK293T/17, range over DENV 1, 3, 4, JEV, lowest for JEV and ZIKV
Procedure: as §4

JEV (strain BJ1) = assay: Virus titer by plaque assay, JEV; type: cell-based; settings: 10 μM, 24 h, HEK293T/17, MOI 1
Procedure: as §4

[6] = 20 μM, 24 h.p.i., HEK293T/17, plaque assay
[7] = 10 µM, 24 h, HEK293T/17, plaque assay

Compound: C=C1/C(=C\C=C2/CCC[C@]3(C)[C@@H]([C@H](C)CCCC(C)(C)O)CC[C@@H]23)C[C@@H](O)C[C@@H]1O [1,25(OH)2D3, 1,25-dihydroxyvitamin D3]
- numbers of infected cells [1]: decreased numbers of infected cells

Compound: C=C1/C(=C\C=C2/CCC[C@]3(C)[C@@H]([C@H](C)/C=C/C=C/C(O)(CC)CC)CC[C@@H]23)C[C@@H](O)C[C@@H]1O [EB1089, reference compound]
- reduction of viral production (DENV 2 [2]; [6]): approximately 2 Log10
- viral yield (DENV 2 [2]; [6]): significantly reduced
- transcriptional level of VDR (VDR): significantly up regulated
- transcriptional level of CYP24A1 (CYP24A1): significantly up regulated
- transcriptional level of CYP27B1 (CYP27B1): significantly up regulated
- levels of infected cells (DENV 2 [3]; 20 μM, 24 h.p.i., HEK293T/17): significantly reduced

Compound: O=C1C2CCCN2C(c2ccco2)N1c1ccc([N+](=O)[O-])cc1 (stereo not drawn) [ZD-1]
- reduction of virus production (DENV 2 [2]; [7]): 2-3 Log10
- virus titer, treatment at 6 and 12 h post-infection (DENV 2 [2]; 10 µM): significant reductions
- EC50 (DENV 2 [2]): 8.74 µM
- CC50 (HEK293T/17 cells): 260 µM
- level of infection in HepG2 cells (DENV 2 [4]): modest
- level of infection (DENV 2 [3]; 10 µM, 24 h): highly significant reductions
- level of infection, treatment at 6 and 12 h post-infection (DENV 2 [3]; 10 µM): significant reductions

Compound: COc1cc(C2N(c3ccc([N+](=O)[O-])cc3)C(=O)C3CCCN32)ccc1O (stereo not drawn) [ZD-2]
- reduction of virus production (DENV 2 [2]; [7]): 2-3 Log10
- EC50 (DENV 2 [2]): 11.8 µM
- CC50 (HEK293T/17 cells): 314 µM
- level of infection (DENV 2 [3]; 10 µM, 24 h): highly significant reductions

Compound: CSCCC(N)C(=O)Oc1ccc(C2N(c3ccc([N+](=O)[O-])cc3)C(=O)C3CCCN32)cc1.Cl (stereo not drawn) [ZD-3]
- EC50 (DENV 2 [2]): 7.47 µM
- CC50 (HEK293T/17 cells): 394 µM
- level of infection (DENV 2 [3]; 10 µM, 24 h): highly significant reductions

Compound: CSCCC(NC(=O)OC(C)(C)C)C(=O)Nc1ccc(C2N(c3ccc([N+](=O)[O-])cc3)C(=O)C3CCCN32)cc1 (stereo not drawn) [ZD-4]
- reduction of virus production (DENV 2 [2]; [7]): over 1 Log10
- EC50 (DENV 2 [2]): 33.5 µM
- CC50 (HEK293T/17 cells): 520 µM
- infection levels reduced by (DENV 2 [3]; 10 µM, 24 h, HEK293T/17): approximately 50%

Compound: COc1ccc(CC2N(c3ccc([N+](=O)[O-])cc3)C(=O)C3CCCN32)cc1OC (stereo not drawn) [ZD-5]
- reduction of virus production (DENV 2 [2]; [7]): 2-3 Log10
- virus titer, treatment at 6 and 12 h post-infection (DENV 2 [2]; 10 µM): significant reductions
- EC50 (DENV 2 [2]): 8.46 µM
- CC50 (HEK293T/17 cells): 439 µM
- level of infection (DENV 2 [3]; 10 µM, 24 h): highly significant reductions
- level of infection, treatment at 6 and 12 h post-infection (DENV 2 [3]; 10 µM): significant reductions

Compound: O=C1C2CCCN2C(c2ccc(O)cc2)N1c1ccc([N+](=O)[O-])cc1 (stereo not drawn) [ZD-6]
- virus production, DENV 3 (DENV 3 (strain 16562)): significantly inhibited
- virus production, DENV 1 (DENV 1 (strain 16007)): significantly inhibited
- reduction of virus production (DENV 2 [2]; [7]): 2-3 Log10
- EC50 (DENV 2 [2]): 11.3 µM
- CC50 (HEK293T/17 cells): 277 µM
- virus production, ZIKV (ZIKV (strain SV0010/15)): significantly inhibited
- virus production, DENV 4 (DENV 4 (strain 1036)): significantly inhibited
- level of infection (DENV 2 [3]; 10 µM, 24 h): highly significant reductions
- magnitude of inhibition of virus production [5]: 1–3 Log10
- virus production, JEV (JEV (strain BJ1)): significantly inhibited

Compound: CSCCC(NC(=O)OC(C)(C)C)C(=O)Oc1ccc(C2N(c3ccc([N+](=O)[O-])cc3)C(=O)C3CCCN32)cc1 (stereo not drawn) [ZD-20]
- effect on DENV 2 titer in the supernatant (DENV 2 [2]; [7]): no significant effect
- EC50 (DENV 2 [2]): 152 µM
- CC50 (HEK293T/17 cells): 908 µM
- level of infection (DENV 2 [3]; 10 µM, 24 h): no significant reduction
